Values after ≈ are worked out from the molar mass of the structure shown.
Key:
Assay in all cases: In vitro assay of antibacterial activity (agar dilution MIC)
Format in all cases: cell-based
[1] = tested on: Klebsiella pneumoniae ATCC 8045; conditions: BHI agar, 35-37 °C, 20 to 24 hours, unit assumed
Protocol: (§1) Representative compounds of the present invention were assayed in vitro for antibacterial activity as follows: Twelve petri dishes containing successive aqueous dilutions of the test compound mixed with 10 mL of sterilized Brain Heart Infusion (BHI) agar (Difco 0418-01-5) were prepared. Each plate was inoculated with 1:100 (or 1:10 for slow-growing strains, such as Micrococcus and Streptococcus) dilutions of up to 32 different microorganisms, using a Steers replicator block. The inoculated plates were incubated at 35-37 °C for 20 to 24 hours, In addition, a control plate, using BHI agar containing no test compound, was prepared and incubated at the beginning and end of each test.
(§2) An additional plate containing a compound having known susceptibility patterns for the organisms being tested and belonging to the same antibiotic class as the test compound was also prepared and incubated as a further control, as well as to provide test-to-test comparability. Erythromycin A was used for this purpose.
(§3) After incubation, each plate was visually inspected. The minimum inhibitory concentration (MIC) was defined as the lowest concentration of drug yielding no growth, a slight haze, or sparsely isolated colonies on the inoculum spot as compared to the growth control. […]

[2] = tested on: Providencia struartii CMX 640; conditions: BHI agar, 35-37 °C, 20 to 24 hours, unit assumed
Protocol: as §1, §2, §3

[3] = tested on: Pseudomonas aeruginosa DPHD-2862; conditions: BHI agar, 35-37 °C, 20 to 24 hours, unit assumed
Protocol: as §1, §2, §3

[4] = tested on: Pseudomonas aeruginosa K799/WT; conditions: BHI agar, 35-37 °C, 20 to 24 hours, unit assumed
Protocol: as §1, §2, §3

[5] = tested on: Pseudomonas aeruginosa 5007; conditions: BHI agar, 35-37 °C, 20 to 24 hours, unit assumed
Protocol: as §1, §2, §3

[6] = tested on: Staphylococcus aureus A-5278; conditions: BHI agar, 35-37 °C, 20 to 24 hours, unit assumed
Protocol: as §1, §2, §3

[7] = tested on: Staphylococcus aureus CMX 553; conditions: BHI agar, 35-37 °C, 20 to 24 hours, unit assumed
Protocol: as §1, §2, §3

[8] = tested on: Pseudomonas aeruginosa K799/61; conditions: BHI agar, 35-37 °C, 20 to 24 hours, unit assumed
Protocol: as §1, §2, §3

[9] = tested on: Pseudomonas aeruginosa BMH10; conditions: BHI agar, 35-37 °C, 20 to 24 hours, in µg/mL (unit assumed)
Protocol: as §1, §2, §3

[10] = tested on: Micrococcus luteus ATCC 9341; conditions: BHI agar, 35-37 °C, 20 to 24 hours, unit assumed
Protocol: as §1, §2, §3

Escherichia coli KNK 437 = conditions: BHI agar, 35-37 °C, 20 to 24 hours, unit assumed
Protocol: as §1, §2, §3

[11] = tested on: Staphylococcus aureus CMX 642A; conditions: BHI agar, 35-37 °C, 20 to 24 hours, unit assumed
Protocol: as §1, §2, §3

Escherichia coli DC-2 = conditions: BHI agar, 35-37 °C, 20 to 24 hours, unit assumed
Protocol: as §1, §2, §3

[12] = tested on: Staphylococcus aureus NCTC10649M; conditions: BHI agar, 35-37 °C, 20 to 24 hours, unit assumed
Protocol: as §1, §2, §3

[13] = tested on: Streptococcus agalactiae CMX 508; conditions: BHI agar, 35-37 °C, 20 to 24 hours, unit assumed
Protocol: as §1, §2, §3

[14] = tested on: Enterobacter aerogenes ATCC 13048; conditions: BHI agar, 35-37 °C, 20 to 24 hours, unit assumed
Protocol: as §1, §2, §3

[15] = tested on: Micrococcus luteus ATCC 4698; conditions: BHI agar, 35-37 °C, 20 to 24 hours, unit assumed
Protocol: as §1, §2, §3

[16] = tested on: Pseudomonas aeruginosa DPHD-5263; conditions: BHI agar, 35-37 °C, 20 to 24 hours, in µg/mL (unit assumed)
Protocol: as §1, §2, §3

Escherichia coli H560 = conditions: BHI agar, 35-37 °C, 20 to 24 hours, unit assumed
Protocol: as §1, §2, §3

[17] = tested on: Staphylococcus aureus ATCC 6538P; conditions: BHI agar, 35-37 °C, 20 to 24 hours, unit assumed
Protocol: as §1, §2, §3

[18] = tested on: Streptococcus pyogenes PIU 2548; conditions: BHI agar, 35-37 °C, 20 to 24 hours, unit assumed
Protocol: as §1, §2, §3

Candida albicans CCH 442 = conditions: BHI agar, 35-37 °C, 20 to 24 hours, unit assumed
Protocol: as §1, §2, §3

[19] = tested on: Enterococcus faecium ATCC 8043; conditions: BHI agar, 35-37 °C, 20 to 24 hours, unit assumed
Protocol: as §1, §2, §3

[20] = tested on: Staphylococcus epidermidis 3519; conditions: BHI agar, 35-37 °C, 20 to 24 hours, unit assumed
Protocol: as §1, §2, §3

[21] = tested on: Streptococcus bovis A-5169; conditions: BHI agar, 35-37 °C, 20 to 24 hours, unit assumed
Protocol: as §1, §2, §3

[22] = tested on: Staphylococcus aureus 1775; conditions: BHI agar, 35-37 °C, 20 to 24 hours, unit assumed
Protocol: as §1, §2, §3

Escherichia coli JUHL = conditions: BHI agar, 35-37 °C, 20 to 24 hours, in µg/mL (unit assumed)
Protocol: as §1, §2, §3

Pseudomonas capacia 2961 = conditions: BHI agar, 35-37 °C, 20 to 24 hours, in µg/mL (unit assumed)
Protocol: as §1, §2, §3

[23] = tested on: Streptococcus pyogenes 930; conditions: BHI agar, 35-37 °C, 20 to 24 hours, unit assumed
Protocol: as §1, §2, §3

Escherichia coli SS = conditions: BHI agar, 35-37 °C, 20 to 24 hours, unit assumed
Protocol: as §1, §2, §3

[24] = tested on: Actinetobacter calcoaceticus CMX 669; conditions: BHI agar, 35-37 °C, 20 to 24 hours, unit assumed
Protocol: as §1
(§4) An additional plate containing a compound having known susceptibility patterns for the organisms being tested and belonging to the same antibiotic class as the test compound was also prepared and incubated as a further control, as well as to provide test-to-test comparability.
as §3

[25] = tested on: Mycobacterium smegmatis ATCC 114; conditions: BHI agar, 35-37 °C, 20 to 24 hours, unit assumed
Protocol: as §1, §2, §3

[26] = tested on: Staphylococcus aureus A5177; conditions: BHI agar, 35-37 °C, 20 to 24 hours, unit assumed
Protocol: as §1, §4, §3

“Compound of Formula (XII): X is-=N-O-(1-isopropoxycyclohexyl), R is allyl, R^p is trimethylsilyl [Example 1B]” was tested, and the MIC [1] was > 100 µg/mL, the MIC [2] was > 100 µg/mL and the MIC [3] was > 100 µg/mL. The MIC [4] was > 100 µg/mL, the MIC [5] was > 100 µg/mL and the MIC [6] was > 100 µg/mL. The MIC [7] was 1.56 µg/mL, the MIC [8] was 6.2 µg/mL and the MIC [9] was > 100. For the same compound, the MIC [10] was 0.2 µg/mL, the MIC (Escherichia coli KNK 437) was > 100 µg/mL and the MIC [11] was 1.56 µg/mL. The MIC (Escherichia coli DC-2) was > 100 µg/mL, the MIC [12] was 3.1 µg/mL and the MIC [13] was 0.1 µg/mL. For the same compound, the MIC [14] was > 100 µg/mL, the MIC [15] was 3.1 µg/mL and the MIC [16] was > 100. The MIC (Escherichia coli H560) was 100 µg/mL, the MIC [17] was 0.78 µg/mL and the MIC [18] was 6.2 µg/mL. For the same compound, the MIC (Candida albicans CCH 442) was > 100 µg/mL, the MIC [19] was 0.2 µg/mL and the MIC [20] was 0.39 µg/mL. For the same compound, the MIC [21] was 0.02 µg/mL, the MIC [22] was > 100 µg/mL and the MIC (Escherichia coli JUHL) was > 100. The MIC (Pseudomonas capacia 2961) was > 100, the MIC [23] was > 100 µg/mL and the MIC (Escherichia coli SS) was 3.1 µg/mL. For the same compound, the MIC [24] was 50 µg/mL.
With “Compound of Formula (X): X is =N-OH, R is allyl [Example 1C]” the MIC [1] was > 100 µg/mL, the MIC [2] was > 100 µg/mL and the MIC [3] was > 100 µg/mL. The MIC [4] was > 100 µg/mL, the MIC [5] was > 100 µg/mL and the MIC [6] was > 100 µg/mL. For the same compound, the MIC [7] was 0.78 µg/mL, the MIC [8] was 6.2 µg/mL and the MIC [9] was > 100. The MIC [10] was 0.1 µg/mL, the MIC (Escherichia coli KNK 437) was > 100 µg/mL and the MIC [11] was 1.56 µg/mL. For the same compound, the MIC (Escherichia coli DC-2) was > 100 µg/mL, the MIC [12] was 0.78 µg/mL and the MIC [13] was 0.01 µg/mL. The MIC [25] was 0.2 µg/mL, the MIC [14] was > 100 µg/mL and the MIC [15] was 1.56 µg/mL. For the same compound, the MIC [16] was > 100, the MIC (Escherichia coli H560) was 100 µg/mL and the MIC [17] was 0.78 µg/mL. For the same compound, the MIC [18] was 3.1 µg/mL, the MIC (Candida albicans CCH 442) was > 100 µg/mL and the MIC [19] was 0.2 µg/mL. For the same compound, the MIC [20] was 0.39 µg/mL, the MIC [21] was 0.01 µg/mL and the MIC [22] was > 100 µg/mL. For the same compound, the MIC (Escherichia coli JUHL) was 100, the MIC (Pseudomonas capacia 2961) was > 100 and the MIC [23] was > 100 µg/mL. It also gave an MIC (Escherichia coli SS) of 0.78 µg/mL and an MIC [24] of 50 µg/mL.
`CC[C@H]1OC(=O)[C@H](C)[C@@H](O[C@H]2C[C@@](C)(OC)[C@@H](O)[C@H](C)O2)[C@H](C)[C@@H](O[C@@H]2O[C@H](C)C[C@H](N(C)C)[C@H]2O)[C@](C)(OCC(C)=O)C[C@@H](C)C(=O)[C@H](C)[C@@H](O)[C@]1(C)O` [Example 9, Compound of Formula (X); X is =O. R is 2-oxopropyl] was tested, and the MIC [1] was > 100 µg/mL, the MIC [2] was > 100 µg/mL and the MIC [3] was > 100 µg/mL. For the same compound, the MIC [4] was > 100 µg/mL, the MIC [5] was > 100 µg/mL and the MIC [6] was > 100 µg/mL. The MIC [8] was 12.5 µg/mL, the MIC [9] was > 100 and the MIC [10] was 3.1 µg/mL. For the same compound, the MIC (Escherichia coli KNK 437) was > 100 µg/mL, the MIC [11] was 3.1 µg/mL and the MIC [12] was 3.1 µg/mL. The MIC [13] was 3.1 µg/mL, the MIC [25] was 3.1 µg/mL and the MIC [14] was > 100 µg/mL. The MIC [16] was > 100, the MIC (Escherichia coli H560) was > 100 µg/mL and the MIC [17] was 3.1 µg/mL. The MIC [18] was 12.5 µg/mL, the MIC (Candida albicans CCH 442) was > 100 µg/mL and the MIC [19] was 3.1 µg/mL. The MIC [20] was 3.1 µg/mL, the MIC [21] was 3.1 µg/mL and the MIC [22] was > 100 µg/mL. The MIC (Escherichia coli JUHL) was > 100, the MIC (Pseudomonas capacia 2961) was > 100 and the MIC [23] was > 100 µg/mL. It also gave an MIC [24] of 50 µg/mL.
In the case of `CC[C@H]1OC(=O)[C@H](C)[C@@H](O[C@H]2C[C@@](C)(OC)[C@@H](O)[C@H](C)O2)[C@H](C)[C@@H](O[C@@H]2O[C@H](C)C[C@H](N(C)C)[C@H]2O)[C@](C)(O)C[C@@H](C)C(=O)[C@H](C)[C@@H](O)[C@]1(C)O` [Ery. A, Erythromycin A, reference compound], the MIC [1] was > 100 µg/mL, the MIC [2] was > 100 µg/mL and the MIC [3] was > 100 µg/mL. The MIC [4] was 100 µg/mL (≈ 136 µM), the MIC [5] was > 100 µg/mL and the MIC [6] was > 100 µg/mL. For the same compound, the MIC [7] was 0.39 µg/mL (≈ 0.531 µM), the MIC [8] was 1.56 µg/mL (≈ 2.13 µM) and the MIC [9] was > 100. The MIC [10] was 0.05 µg/mL (≈ 0.0681 µM), the MIC (Escherichia coli KNK 437) was 100 µg/mL (≈ 136 µM) and the MIC [11] was 0.39 µg/mL (≈ 0.531 µM). The MIC (Escherichia coli DC-2) was > 100 µg/mL, the MIC [12] was 0.39 µg/mL (≈ 0.531 µM) and the MIC [13] was 0.05 µg/mL (≈ 0.0681 µM). For the same compound, the MIC [14] was > 100 µg/mL, the MIC [15] was 0.2 µg/mL (≈ 0.273 µM) and the MIC [16] was >100. It also gave an MIC (Escherichia coli H560) of 50 µg/mL (≈ 68.1 µM), an MIC [17] of 0.2 µg/mL (≈ 0.273 µM) and an MIC [18] of 3.1 µg/mL (≈ 4.22 µM). For the same compound, the MIC (Candida albicans CCH 442) was > 100 µg/mL, the MIC [19] was 0.05 µg/mL (≈ 0.0681 µM) and the MIC [20] was 0.39 µg/mL (≈ 0.531 µM). The MIC [21] was 0.02 µg/mL (≈ 0.0273 µM), the MIC [22] was > 100 µg/mL and the MIC (Escherichia coli JUHL) was > 100. The MIC (Pseudomonas capacia 2961) was > 100, the MIC [23] was > 100 µg/mL and the MIC (Escherichia coli SS) was 0.78 µg/mL (≈ 1.06 µM). The MIC [26] was 3.1 µg/mL (≈ 4.22 µM).
